Source: patent US8173695B2, “Kappa selective opioid receptor antagonist” (Eli Lilly and Company, priority 2008, dated 2012)
Where “and” joins values, the source holds several entries; their conditions need not be identical. Equal values may be shown once.

Columns and labels:
[1] = system: Male NIH-Swiss mice; assay: Mouse forced swim test; type: in vivo; settings: for immobility in mouse forced swim test, Mean: 60 min
Excerpt: This test evaluates the effect of test compound on mice mobility as a measure of antidepressant effect. The less immobility compared to vehicle, the more pronounced the antidepressant-like effect.
Male, NIH-Swiss mice (25-30 g) (Harlan Sprague-Dawley, Indianapolis, Ind., USA) are housed in a vivarium for at least one week prior to use with water and rodent chow freely available during this acclimation period. Animals are removed from the vivarium to the testing area in their home cages and allowed to adapt to the new environment for at least one hour before testing.
Mice are placed in clear plastic cylinders (diameter: 10 cm; height: 25 cm) filled with 6 cm of water (22-25° C.) for six minutes. The duration of immobility during the last four minutes of the six minutes test period is scored. A mouse is recorded as immobile when floating motionless or making only those movements necessary to keep its head above water.
The test compound is administered p.o. 1 hour prior to testing at 1.0 mg/kg, 3.0 mg/kg and 10.0 mg/kg, n of 8 per group in a vehicle of 5 ml of sterile water and 30 ml of diluted (10×) lactic acid. Imipramine is evaluated as a positive control, 15 mg/kg: p, 30 min. prior to testing n of 4.
A second study is carried out evaluating 1 and 3 mg/kg doses of the compound of Example 1A alone and in combination with 5 mg/kg of imipramine. Imipramine alone is evaluated at 5 and 15 mg/kg doses and a vehicle control is included in the study. For the combination studies, the compound of Example 1A is administered p.o. 30 minutes prior to administration of imipramine i.p. and the test initiated 30 minutes following imipramine administration. An n of 8 per group is evaluated for all groups. For the evaluations of the compound of Example 1A alone, testing is initiated 60 minutes following administration and testing of imipramine only treated animals is initiated 30 minutes following administration.

[2] = Plasma exposure after oral dosing, LC/MS/MS; type: in vivo; settings: male, Sprague Dawley (Harlan), rat plasma, read-out: Plasma Levels
Description: (§1) Male Harlan Sprague Dawley rats are treated with the compound of Example 1A of the present invention using a 3% lactic acid/water oral formulation at doses of […], 0.3, 1, 3, 10 and 30 mg/kg. […] The increasing levels of kappa receptor occupancy are driven by roughly proportional increases in plasma and brain exposure of the compound of Example 1A of the present invention up to a dose of 30 mg/kg.
Plasma exposure of Example 1A of the present invention in the rat following administration is determined from plasma isolated from trunk blood collected at the time of tissue collection for receptor occupancy. Levels of the compound of Example 1A are detected by LC/MS/MS (API 4000, MDS Sciex) and quantified from a standard curve of Example 1A prepared in vehicle treated rat plasma.

[3] = target: T1, mu receptors (striatum) (Rattus norvegicus, UniProt P33535); assay: Opioid receptor occupancy (RO) in rat brain, tracer naltrexone; type: in vivo
T1 construct: from tissue; host or cells: striatum of living Sprague Dawley rats
T1 sequence (P33535 whole entry): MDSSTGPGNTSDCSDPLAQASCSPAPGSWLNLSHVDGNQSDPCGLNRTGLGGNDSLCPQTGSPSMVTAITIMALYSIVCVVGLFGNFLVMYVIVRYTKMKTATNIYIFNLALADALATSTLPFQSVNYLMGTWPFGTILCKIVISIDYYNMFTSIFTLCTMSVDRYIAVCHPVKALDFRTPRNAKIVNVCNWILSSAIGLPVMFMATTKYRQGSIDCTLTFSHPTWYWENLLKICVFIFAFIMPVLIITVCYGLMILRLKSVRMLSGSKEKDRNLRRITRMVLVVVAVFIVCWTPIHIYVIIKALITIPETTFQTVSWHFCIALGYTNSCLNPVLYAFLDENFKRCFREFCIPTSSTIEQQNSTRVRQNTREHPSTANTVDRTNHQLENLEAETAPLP

[4] = system: Sprague Dawley rats; assay: Prepulse inhibition, reversal of morphine induced disruption of PPI; type: in vivo, rat
[5] = Brain (striatum) exposure levels after oral dosing, LC/MS/MS; type: in vivo; settings: male, Sprague Dawley (Harlan), rat striatum
Description: as §1
Exposure levels of the compound of Example 1A in the rat striatum following administration were determined in the same samples used to quantify the level of opioid receptor occupancy. Levels of Example 1A are detected by LC/MS/MS (API 4000, MDS Sciex) and quantified from a standard curve of Example 1A prepared in rat brain homogenate.

[6] = system: alcohol preferring (P) rats; assay: P rat 12 hr ethanol drinking; type: in vivo; settings: p<0.05 versus vehicle
Description: The test animals are selectively-bred alcohol preferring (P) rats. These rats voluntarily consume more than 5 g/kg of ethanol per day and meet all of the perceived criteria for an animal model of alcoholism. They attain blood alcohol contents between 50-200 mg %; they will operant respond to obtain ethanol; they consume ethanol for pharmacological effects and not taste, smell or caloric properties; and they develop metabolic and physiological tolerance and eventually dependence with chronic ethanol access.
Female P rats are obtained from a breeding facility at the Indiana University Medical Center in Indianapolis, Ind., USA. Rats are individually housed in an environmentally controlled facility and maintained on a 12 hr light/dark cycle (lights off at 1500 hours).
All drugs are mixed fresh prior to use and administered in a volume of 1 mL/kg. […]
Following a 4-day acclimation to the colony, rats receive homecage access to a bottle of EtOH (10% v/v; Ancare, Bellmore, N.Y.) in addition to the standard bottle of water. […] Consumption of EtOH and water are monitored for approximately 6-9 months prior to drug testing. Food and fluid intake are measured via force transduction with a PC-controlled Drinking & Feeding Monitoring System (TSE Systems, Bad Homburg, Germany). Consumption of food, water, and 15% (v/v) EtOH are continuously monitored for 12 hrs following drug or vehicle administration. […]

[7] = target: T2, kappa receptors (striatum) (Rattus norvegicus, UniProt P34975); assay: Opioid receptor occupancy (RO) in rat brain, tracer GR103545; type: in vivo; settings: 5.5 hrs following oral administration
T2 construct: dose-dependent level of kappa receptor occupancy in the striatum; from tissue; host or cells: striatum of living Sprague Dawley rats
T2 sequence (P34975 whole entry): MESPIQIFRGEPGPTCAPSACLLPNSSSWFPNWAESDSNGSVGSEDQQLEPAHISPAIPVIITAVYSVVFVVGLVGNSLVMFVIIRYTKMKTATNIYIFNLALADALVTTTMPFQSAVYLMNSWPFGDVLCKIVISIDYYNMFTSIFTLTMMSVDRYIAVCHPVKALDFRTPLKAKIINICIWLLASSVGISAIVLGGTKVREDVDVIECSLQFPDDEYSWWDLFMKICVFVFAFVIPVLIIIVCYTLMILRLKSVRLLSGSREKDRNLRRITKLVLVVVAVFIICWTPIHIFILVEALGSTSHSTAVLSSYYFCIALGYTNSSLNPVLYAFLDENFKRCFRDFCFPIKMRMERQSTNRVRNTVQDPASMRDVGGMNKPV

[8] = target: T3, delta receptors (striatum) (Rattus norvegicus, UniProt P33533); assay: Opioid receptor occupancy (RO) in rat brain, tracer naltriben; type: in vivo
T3 construct: from tissue; host or cells: striatum of living Sprague Dawley rats
T3 sequence (P33533 whole entry): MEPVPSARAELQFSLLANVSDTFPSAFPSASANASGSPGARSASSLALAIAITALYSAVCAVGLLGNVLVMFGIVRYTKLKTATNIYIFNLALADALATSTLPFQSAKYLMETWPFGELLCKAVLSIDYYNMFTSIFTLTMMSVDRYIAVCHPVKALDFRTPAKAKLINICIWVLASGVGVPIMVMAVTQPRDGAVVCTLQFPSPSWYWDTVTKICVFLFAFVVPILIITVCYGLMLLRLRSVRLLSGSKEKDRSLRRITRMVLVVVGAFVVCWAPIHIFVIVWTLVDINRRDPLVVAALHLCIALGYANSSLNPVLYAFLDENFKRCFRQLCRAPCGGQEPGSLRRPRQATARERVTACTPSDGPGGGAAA

[9] = system: Sprague Dawley rats; assay: Prepulse inhibition, reversal of U69593 induced disruption of PPI; type: in vivo, rat

For `Cc1cc(C)cc([C@@H]2CCCN2Cc2ccc(Oc3ccc(C(N)=O)cc3F)cc2)c1` (single isomer, unassigned) [Example 1A], the “immobility in mouse forced swim test, Mean” value ([1]; Example 1A 1 mg/kg p.o.) was 151.53 s, the “immobility in mouse forced swim test, Mean” value ([1]; Example 1A 3 mg/kg p.o.) was 172.02 s and the “antidepressant-like activity (immobility), in words” value ([1]; first study, 10.0 mg/kg p.o. 1 hour prior to testing, p<0.05 versus vehicle, Dunnett's test) was “demonstrates antidepressant-like activity”. For the same compound, the concentration at 5.5 h ([2]; 0.1 mg/kg, oral dose .1) was 1.17 ng/g, the concentration at 5.5 h ([2]; 0.3 mg/kg, oral dose .3) was 2.27 ng/g and the concentration at 5.5 h ([2]; 1 mg/kg, oral dose 1) was 4.63 ng/g. The concentration at 5.5 h ([2]; 3 mg/kg, oral dose 3) was 15.4 ng/g, the concentration at 5.5 h ([2]; 10 mg/kg, oral dose 10) was 65.2 ng/g and the concentration at 5.5 h ([2]; 30 mg/kg, oral dose 30) was 106 ng/g. For the same compound, the ED50 ([3]; oral) was greater than 30 mg/kg, the mu receptor occupancy ([3]; oral doses up to 30 mg/kg) was “no significant occupancy” and the “% Inhibition (PPI), individual rats” value ([4]; 10 mg/kg Example 1A p.o./20 mg/kg morphine sc) was 42.77% and 21.98% and 40.70% and 0.18% and 21.00% and 21.21% and 50.34% and 26.48% and 18.04% and 21.07% and 29.49% and 50.16% and 18.66% and 63.46%. For the same compound, the “% Inhibition (PPI), individual rats” value ([4]; 30 mg/kg Example 1A p.o./20 mg/kg morphine sc) was 30.93% and 6.85% and 16.56% and 54.32% and 18.94% and 45.40% and 42.78% and 46.29% and 39.26% and 20.35% and 40.02% and 8.61% and 57.12% and 41.32%, the “reversal of sensory motor gating deficits induced by the Mu agonist morphine” value ([4]; rats, Table 7) was “can reverse” and the concentration at 5.5 h ([5]; 0.1 mg/kg, oral dose .1 mg/kg) was 15.3 ng/g. For the same compound, the concentration at 5.5 h ([5]; 0.3 mg/kg, oral dose .3 mg/kg) was 7.23 ng/g, the concentration at 5.5 h ([5]; oral dose 1 mg/kg) was 19.6 ng/g and the concentration at 5.5 h ([5]; oral dose 3 mg/kg) was 39.2 ng/g. For the same compound, the concentration at 5.5 h ([5]; oral dose 10 mg/kg) was 171 ng/g, the concentration at 5.5 h ([5]; oral dose 30 mg/kg) was 266 ng/g and the “amount of ethanol consumed” value ([6]; 1 mg/kg orally) was “decreased”. The “amount of ethanol consumed” value ([6]; 3 mg/kg orally) was “decreased”, the ED50 [7] was 0.45 mg/kg and the ED50 ([8]; oral) was greater than 30 mg/kg. The delta receptor occupancy ([8]; oral doses up to 30 mg/kg) was “no significant occupancy”, the “% Inhibition (PPI), individual rats” value ([9]; 0.1 mg/kg Example 1A p.o./3.0 mg/kg U-69593 sc) was 29.86% and 55.18% and 22.97% and 54.62% and 31.90% and 9.79% and 25.88% and 31.40% and the “% Inhibition (PPI), individual rats” value ([9]; 0.3 mg/kg Example 1A p.o./3.0 mg/kg U-69593 sc) was 33.74% and −1.75% and 52.00% and 47.01% and 0.52% and 42.14% and 66.71% and 71.91%. For the same compound, the “% Inhibition (PPI), individual rats” value ([9]; 1.0 mg/kg Example 1A p.o./3.0 mg/kg U-69593 sc) was 30.08% and 52.23% and 24.91% and 70.96% and 55.10% and 71.68% and 61.05% and 59.31% and the “reversal of sensory motor gating deficits induced by the Kappa agonist U-69593” value ([9]; rats, Table 6) was “can reverse”.
